How the values were obtained:
human mGluR5 = human mGluR5 (Homo sapiens, UniProt P41594); conditions: read-out: human mGluR5 IC50
Procedure: The cells were loaded with a Ca2+-sensitive fluorescent dye (e.g., Fluo-4), and the plates were washed and placed in the FDSS instrument. Test compound was applied to cells 3 seconds after baseline readings were taken. Cells were incubated with the test compounds for 140 seconds and then stimulated with an EC20 concentration of an mGluR5 agonist (e.g., glutamate, 3,5-dihydroxyphenylglycine, or quisqualate); 60-80 seconds later an EC80 concentration of agonist was added and readings taken for an additional 40 seconds. Data were collected at 1 Hz. […] Concentration response curves were generated using a four parameter logistical equation.
The above described assay was operated in two modes. In the first mode (utilizing a triple add protocol), a range of concentrations of the present compounds were added to cells, followed by two single fixed concentrations of agonist (EC20 followed by EC80). If a compound acted as a potentiator, an EC50 value for potentiation of the EC20 response and a maximum extent of potentiation by the compound at this concentration of agonist was determined by non-linear curve fitting. If a compound acted as an antagonist, an IC50 value for antagonism of the EC80 response and a maximum extent of antagonism by the compound at this concentration of agonist was determined by non-linear curve fitting. In the second mode (utilizing a double add protocol), several fixed concentrations of the present compounds were added to various wells on a plate, followed by a range of concentrations of agonist for each concentration of present compound; the EC50 values for the agonist at each concentration of compound were determined by nonlinear curve fitting. A decrease in the EC50 value of the agonist with increasing concentrations of the present compounds (a leftward shift of the agonist concentration-response curve) is an indication of the degree of mGluR5 positive allosteric modulation at a given concentration of the present compound. An increase in the EC50 value of the agonist with increasing concentrations of the present compounds (a rightward shift of the agonist concentration response curve) is an indication of the degree of mGluR5 antagonism at a given concentration of the present compound. The second mode also indicates whether the present compounds also affect the maximum response to mGluR5 to agonists.
The mGluR5 activity was determined using the metabotropic glutamate receptor activity assays in human embryonic kidney cells as described herein. The mGluR5 activity data for some compounds are shown as the average of at least three experiments with the standard error in these cases. If no error is indicated for the mGluR5 activity, the values given represent the results from a single experiment or the average of two experiments.

[1] = intravenous administration to rhesus monkeys; literature; cited from earlier work

Chain of human mGluR5 (P41594 21-1212): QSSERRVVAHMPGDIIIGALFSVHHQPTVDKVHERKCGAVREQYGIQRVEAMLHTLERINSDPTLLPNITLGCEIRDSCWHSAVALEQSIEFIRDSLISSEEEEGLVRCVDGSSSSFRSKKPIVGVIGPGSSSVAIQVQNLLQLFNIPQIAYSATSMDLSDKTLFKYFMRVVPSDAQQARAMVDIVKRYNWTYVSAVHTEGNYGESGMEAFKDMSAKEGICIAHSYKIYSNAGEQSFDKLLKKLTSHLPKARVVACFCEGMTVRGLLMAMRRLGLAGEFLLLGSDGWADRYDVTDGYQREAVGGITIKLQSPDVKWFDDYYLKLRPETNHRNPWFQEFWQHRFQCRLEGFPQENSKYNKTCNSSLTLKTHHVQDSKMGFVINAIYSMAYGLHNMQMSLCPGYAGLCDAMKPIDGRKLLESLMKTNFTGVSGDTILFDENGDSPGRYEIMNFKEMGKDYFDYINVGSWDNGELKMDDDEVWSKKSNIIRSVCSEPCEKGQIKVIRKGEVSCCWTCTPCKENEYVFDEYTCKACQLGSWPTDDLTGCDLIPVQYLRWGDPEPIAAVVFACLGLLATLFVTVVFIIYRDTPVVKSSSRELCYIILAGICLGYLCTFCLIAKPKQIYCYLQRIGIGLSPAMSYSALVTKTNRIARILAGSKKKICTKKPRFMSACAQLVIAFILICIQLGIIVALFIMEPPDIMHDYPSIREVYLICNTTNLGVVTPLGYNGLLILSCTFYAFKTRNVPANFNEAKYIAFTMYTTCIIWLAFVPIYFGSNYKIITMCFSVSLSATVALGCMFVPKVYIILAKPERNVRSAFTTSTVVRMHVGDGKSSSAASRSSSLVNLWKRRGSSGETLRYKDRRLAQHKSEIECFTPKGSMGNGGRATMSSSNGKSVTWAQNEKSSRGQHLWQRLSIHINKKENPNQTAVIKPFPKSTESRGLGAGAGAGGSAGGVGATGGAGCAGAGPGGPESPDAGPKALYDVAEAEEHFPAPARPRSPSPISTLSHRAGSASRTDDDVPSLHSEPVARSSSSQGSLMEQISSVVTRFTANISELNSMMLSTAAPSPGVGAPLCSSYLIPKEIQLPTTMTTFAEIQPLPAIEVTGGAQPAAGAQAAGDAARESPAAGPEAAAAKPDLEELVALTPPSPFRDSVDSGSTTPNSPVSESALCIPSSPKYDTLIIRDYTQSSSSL

Row | IC50 (human mGluR5) [nM] | SMILES | clearance [1]
1 | 161 | O=C(Nc1cccc(F)n1)c1cc(Oc2cncnc2)ccn1 | 
2 | 47 | Cc1cccc(NC(=O)c2cc(Oc3cncnc3)ccn2)n1 [N-(6-methylpyridin-2-yl)-4-(pyrimidin-5-yloxy)picolinamide] | 
3 | 245 | O=C(Nc1cccc(Cl)n1)c1cc(Oc2cncnc2)ccn1 | 

The remaining lines, values behind:

Row | SMILES | IC50 (human mGluR5) [nM] | clearance [1]
4 | Cc1nc(C#Cc2cccnc2)cs1 [MTEP, 3-[(2-methyl-1,3-thiazol-4-yl)ethynyl]pyridine] |  | efficiently cleared
5 | O=C(Nc1cc(F)ccn1)c1cc(Oc2cncnc2)ccn1 | 201 | 
6 | Cc1cccc(NC(=O)c2cc(N(C)c3cncnc3)ccn2)n1 | 2150 | 
7 | Cc1nc(NC(=O)c2cc(Oc3cncnc3)ccn2)sc1F | 943 | 
8 | Cc1csc(NC(=O)c2cc(Oc3cccnc3)ccn2)n1 [N-(4-methylthiazol-2-yl)-4-(pyridin-3-yloxy)picolinamide] | 101 | 
9 | O=C(Nc1ccc(F)cn1)c1cc(Oc2cncnc2)ccn1 | 364 | 
